In ChEMBL document CHEMBL5230103, “Hydroxamic acid hybrids as the potential anticancer agents: An Overview” (Eur J Med Chem, 2020):

Assays:
HT-29 [1] = assay: Antitumor activity against human HT-29 cells xenografted in mouse assessed as tumor growth inhibition at 25 mg/kg, po relative to control; assay type: functional; settings: read-out: TGI
HT-29 [2] = assay: Antitumor activity against human HT-29 cells xenografted in mouse assessed as tumor growth inhibition at 50 mg/kg, po relative to control; assay type: functional; settings: read-out: TGI
HT-29 [3] = assay: Antitumor activity against human HT-29 cells xenografted in mouse assessed as tumor growth inhibition at 100 mg/kg, po relative to control; assay type: functional; settings: read-out: TGI
Histone deacetylase 2 = Histone deacetylase 2 (Homo sapiens, UniProt Q92769); assay: Inhibition of HDAC2 (unknown origin)
Chain of Histone deacetylase 2 (Q92769 whole entry): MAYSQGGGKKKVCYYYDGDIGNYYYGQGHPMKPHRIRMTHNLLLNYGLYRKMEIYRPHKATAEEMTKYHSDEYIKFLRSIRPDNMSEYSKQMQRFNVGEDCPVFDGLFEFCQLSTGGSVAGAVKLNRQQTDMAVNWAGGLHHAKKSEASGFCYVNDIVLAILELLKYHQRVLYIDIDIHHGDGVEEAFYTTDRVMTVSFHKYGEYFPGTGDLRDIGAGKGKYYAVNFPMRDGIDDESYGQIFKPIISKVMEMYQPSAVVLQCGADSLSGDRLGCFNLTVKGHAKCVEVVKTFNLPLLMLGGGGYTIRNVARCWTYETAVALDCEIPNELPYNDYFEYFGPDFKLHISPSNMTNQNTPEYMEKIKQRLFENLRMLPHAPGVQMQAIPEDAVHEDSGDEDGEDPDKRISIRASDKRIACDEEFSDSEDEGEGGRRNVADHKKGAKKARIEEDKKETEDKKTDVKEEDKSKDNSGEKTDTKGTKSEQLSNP

SW-620 [4] = assay: Potency index, ratio of vorinostat IC50 to test compound IC50 for cytotoxicity against human SW620 cells assessed as inhibition of cell growth by MTT assay; assay type: functional
ASPC1 = assay: Potency index, ratio of vorinostat IC50 to test compound IC50 for cytotoxicity against human ASPC1 cells assessed as inhibition of cell growth by MTT assay; assay type: functional
PC-3 [5] = assay: Cytotoxicity against human PC-3 cells assessed as inhibition of cell growth by MTT assay; assay type: functional, cell-based
SW-620 [6] = assay: Cytotoxicity against human SW620 cells assessed as inhibition of cell growth by MTT assay; assay type: functional, cell-based
PC-3 [7] = assay: Potency index, ratio of vorinostat IC50 to test compound IC50 for cytotoxicity against human PC-3 cells assessed as inhibition of cell growth by MTT assay; assay type: functional
A549 = assay: Cytotoxicity against human A549 cells assessed as inhibition of cell growth by MTT assay; assay type: functional, cell-based
[8] = Selectivity index, ratio of CC50 for cytotoxicity against HEK293 cells to IC50 for cytotoxicity against human Jurkat E6.1 cells; assay type: toxicity, cell-based; settings: HEK293 cells and Jurkat E6.1 cells, read-out: Ratio CC50/IC50
[9] = Selectivity index, ratio of CC50 for cytotoxicity against HEK293 cells to IC50 for cytotoxicity against mouse B16-F10 cells; assay type: toxicity, cell-based; settings: human, HEK293 cells and B16-F10 cells; read-out: Ratio CC50/IC50
Histone deacetylase 3 = Histone deacetylase 3 (Homo sapiens, UniProt O15379); assay: Inhibition of HDAC3 (unknown origin)
Chain of Histone deacetylase 3 (O15379 whole entry): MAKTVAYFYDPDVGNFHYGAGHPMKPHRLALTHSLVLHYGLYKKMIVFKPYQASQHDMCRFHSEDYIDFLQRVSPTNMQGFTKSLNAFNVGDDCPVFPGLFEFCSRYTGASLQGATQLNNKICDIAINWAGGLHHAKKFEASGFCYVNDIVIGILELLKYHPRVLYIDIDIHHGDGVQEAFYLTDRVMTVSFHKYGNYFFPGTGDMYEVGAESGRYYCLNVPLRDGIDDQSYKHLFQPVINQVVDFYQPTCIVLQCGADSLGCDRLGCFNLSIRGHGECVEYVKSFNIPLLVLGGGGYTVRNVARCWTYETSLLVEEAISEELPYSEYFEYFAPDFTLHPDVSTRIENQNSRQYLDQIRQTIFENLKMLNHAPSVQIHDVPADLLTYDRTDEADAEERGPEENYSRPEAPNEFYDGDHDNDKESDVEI

[10] = Selectivity index, ratio of CC50 for cytotoxicity against HEK293 cells to IC50 for cytotoxicity against human A549 cells; assay type: toxicity, cell-based; settings: HEK293 cells and A549 cells, read-out: Ratio CC50/IC50
B16-F10 = assay: Cytotoxicity against mouse B16-F10 cells assessed as inhibition of cell growth by MTT assay; assay type: functional, cell-based
[11] = Cytotoxicity against HEK293 cells by MTT assay; assay type: toxicity, cell-based; settings: human
MCF7 [12] = assay: Cytotoxicity against human MCF7 cells assessed as inhibition of cell growth by MTT assay; assay type: functional, cell-based
[13] = Selectivity index, ratio of CC50 for cytotoxicity against HEK293 cells to IC50 for cytotoxicity against human MCF7 cells; assay type: toxicity, cell-based; settings: HEK293 cells and MCF7 cells, read-out: Ratio CC50/IC50
HeLa = assay: Cytotoxicity against human HeLa cells assessed as inhibition of cell growth by MTT assay; assay type: functional, cell-based
[14] = Selectivity index, ratio of CC50 for cytotoxicity against HEK293 cells to IC50 for cytotoxicity against human HeLa cells; assay type: toxicity, cell-based; settings: HEK293 cells and HeLa cells, read-out: Ratio CC50/IC50
Jurkat E6.1 = assay: Cytotoxicity against human Jurkat E6.1 cells assessed as inhibition of cell growth by MTT assay; assay type: functional, cell-based
HepG2 = assay: Cytotoxicity against human HepG2 cells assessed as inhibition of cell growth by MTT assay; assay type: functional, cell-based
[15] = Cytotoxicity against African green monkey Vero cells assessed as inhibition of cell growth by MTT assay; assay type: toxicity, cell-based, Chlorocebus sabaeus
[16] = target: T1, Protein deacetylase HDAC6 (Homo sapiens, UniProt Q9UBN7); assay: Inhibition of HDAC6 (unknown origin)
T1 sequence (Q9UBN7 whole entry): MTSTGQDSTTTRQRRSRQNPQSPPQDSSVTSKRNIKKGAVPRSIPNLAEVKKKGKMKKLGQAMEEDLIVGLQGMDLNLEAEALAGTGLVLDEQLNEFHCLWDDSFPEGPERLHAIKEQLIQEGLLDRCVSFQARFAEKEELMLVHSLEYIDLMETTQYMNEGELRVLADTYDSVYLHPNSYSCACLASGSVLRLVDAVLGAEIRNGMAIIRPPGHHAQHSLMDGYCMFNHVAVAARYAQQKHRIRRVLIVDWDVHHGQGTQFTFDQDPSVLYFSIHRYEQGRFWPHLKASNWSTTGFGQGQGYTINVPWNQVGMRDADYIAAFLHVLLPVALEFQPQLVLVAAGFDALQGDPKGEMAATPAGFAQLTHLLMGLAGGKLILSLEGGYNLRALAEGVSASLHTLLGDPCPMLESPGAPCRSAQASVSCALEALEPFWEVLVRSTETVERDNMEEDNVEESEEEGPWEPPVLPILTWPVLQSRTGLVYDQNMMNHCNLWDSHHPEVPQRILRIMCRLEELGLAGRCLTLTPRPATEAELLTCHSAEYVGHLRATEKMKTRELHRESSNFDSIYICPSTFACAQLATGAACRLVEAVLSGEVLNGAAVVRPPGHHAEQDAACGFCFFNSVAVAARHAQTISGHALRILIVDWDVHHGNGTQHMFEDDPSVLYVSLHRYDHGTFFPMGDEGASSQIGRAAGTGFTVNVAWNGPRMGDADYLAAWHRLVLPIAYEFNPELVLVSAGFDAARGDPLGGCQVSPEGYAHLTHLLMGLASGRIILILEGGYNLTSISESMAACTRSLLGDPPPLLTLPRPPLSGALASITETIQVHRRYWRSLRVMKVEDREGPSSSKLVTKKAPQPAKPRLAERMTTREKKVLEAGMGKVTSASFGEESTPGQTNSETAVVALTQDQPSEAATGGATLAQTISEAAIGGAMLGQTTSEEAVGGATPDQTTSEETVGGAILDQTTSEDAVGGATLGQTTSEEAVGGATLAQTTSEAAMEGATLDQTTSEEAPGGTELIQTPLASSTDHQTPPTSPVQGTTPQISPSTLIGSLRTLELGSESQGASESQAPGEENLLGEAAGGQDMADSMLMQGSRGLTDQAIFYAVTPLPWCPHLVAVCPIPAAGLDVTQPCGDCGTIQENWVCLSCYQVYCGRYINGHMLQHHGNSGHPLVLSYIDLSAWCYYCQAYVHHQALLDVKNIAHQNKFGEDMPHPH

[17] = Cytotoxicity against human RWPE-1 cells assessed as inhibition of cell growth by MTT assay; assay type: toxicity, cell-based
MDA-MB-231 [18] = assay: Cytotoxicity against human MDA-MB-231 cells assessed as inhibition of cell growth by MTT assay; assay type: functional, cell-based
Histone deacetylase 1 = Histone deacetylase 1 (Homo sapiens, UniProt Q13547); assay: Inhibition of HDAC1 (unknown origin)
Chain of Histone deacetylase 1 (Q13547 whole entry): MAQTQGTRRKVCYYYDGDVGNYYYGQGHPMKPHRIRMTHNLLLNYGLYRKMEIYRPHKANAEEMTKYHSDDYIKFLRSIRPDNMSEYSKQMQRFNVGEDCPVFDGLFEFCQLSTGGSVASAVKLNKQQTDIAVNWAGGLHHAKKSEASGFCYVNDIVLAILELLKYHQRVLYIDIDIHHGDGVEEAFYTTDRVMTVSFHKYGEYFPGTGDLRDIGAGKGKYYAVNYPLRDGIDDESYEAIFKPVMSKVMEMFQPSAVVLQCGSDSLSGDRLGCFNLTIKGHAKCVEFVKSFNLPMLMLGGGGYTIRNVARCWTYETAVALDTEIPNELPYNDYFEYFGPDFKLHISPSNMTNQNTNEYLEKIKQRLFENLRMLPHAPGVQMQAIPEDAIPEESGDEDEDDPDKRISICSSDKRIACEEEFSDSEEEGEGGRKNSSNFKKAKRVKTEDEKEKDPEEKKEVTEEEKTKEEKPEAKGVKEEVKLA

NCI-H1299 = assay: Cytotoxicity against human NCI-H1299 cells assessed as inhibition of cell growth by MTT assay; assay type: functional, cell-based
HCT-116 = assay: Cytotoxicity against human HCT-116 cells assessed as inhibition of cell growth by MTT assay; assay type: functional, cell-based
SMMC-7721 = assay: Cytotoxicity against human SMMC-7721 cells assessed as inhibition of cell growth by MTT assay; assay type: functional, cell-based
MCF7 [19] = assay: Cytotoxicity against human MCF7 cells assessed as inhibition of cell growth by MTS assay; assay type: functional, cell-based
MDA-MB-231 [20] = assay: Cytotoxicity against human MDA-MB-231 cells assessed as inhibition of cell growth by MTS assay; assay type: functional, cell-based
T47D = assay: Cytotoxicity against human T47D cells assessed as inhibition of cell growth by MTS assay; assay type: functional, cell-based
MDA-MB-231 [21] = assay: animal or person; assay type: functional, Homo sapiens; settings: Mus musculus, route po, read-out: TGI
Description: Antitumor activity against human MDA-MB-231 cells xenografted in mouse assessed as tumor growth inhibition at 25 mg/kg, po relative to control

C[C@H](NC(=O)c1nc(-c2ncc(-c3ccccc3)s2)sc1C1CC1)c1ccc(C(=O)NO)cc1
inhibition in vivo at 25 mg/kg (HT-29 [1]): 39.4%
inhibition in vivo at 50 mg/kg (HT-29 [2]): 40.7%
inhibition in vivo at 100 mg/kg (HT-29 [3]): 62.5%

Cc1ccc2c(c1)/C(=N\O)C(=O)N2CCCC(=O)NO
IC50 (Histone deacetylase 2): 0.91 µM
Ratio IC50 (SW-620 [4]): 4.3
Ratio IC50 (ASPC1): 4.3
IC50 (PC-3 [5]): 0.49 µM
IC50 (SW-620 [6]): 0.49 µM
Ratio IC50 (PC-3 [7]): 4.3

O=C(CCCN1CCN(C(=O)Nc2cccc3ncccc23)CC1)NO
IC50 (A549): 7.19 µM
selectivity ratio [8]: > 8.7
selectivity ratio [9]: > 8.7
IC50 (Histone deacetylase 3): 0.00442 µM
selectivity ratio [10]: > 8.7
IC50 (B16-F10): 7.19 µM
CC50 [11]: > 100 µM
IC50 (MCF7 [12]): 7.19 µM
selectivity ratio [13]: > 8.7
IC50 (HeLa): 7.19 µM
selectivity ratio [14]: > 8.7
IC50 (Jurkat E6.1): 7.19 µM

N#Cc1cccc(-c2cn(CCCCCCn3cccc(/C=C/C(=O)NO)c3=O)nn2)c1
IC50 (A549): 0.6 µM
IC50 (HepG2): 0.6 µM
IC50 [15]: > 50 µM
IC50 [16]: 0.049 µM
IC50 [17]: > 50 µM
IC50 (PC-3 [5]): 0.6 µM
IC50 (MDA-MB-231 [18]): 0.6 µM
IC50 (Histone deacetylase 1): 0.035 µM

COc1ccc(-c2nc(C(=O)N(CCN(C)C)Cc3ccc(C(=O)NO)cc3)cc3c2[nH]c2ccccc23)cc1
IC50 (HepG2): 1.6 µM
IC50 (NCI-H1299): 1.6 µM
IC50 (HCT-116): 1.6 µM
IC50 (SMMC-7721): 1.6 µM

CCCCc1nc2cc(/C=C/C(=O)NO)ccc2n1CCN(CC)CC [PRACINOSTAT]
IC50 (MCF7 [19]): 5.34 µM
IC50 (MDA-MB-231 [20]): 5.34 µM
IC50 (T47D): 5.34 µM
inhibition in vivo at 25 mg/kg (MDA-MB-231 [21]): 50%
